Assay results taken from article PMC6522510 (Nature Communications, 2019).
Where two headings read alike, the source gives them in different places.

Legend:
[1] = tested on: CHRF288-11; assay: cells; set-up: species or system AML cell lines (8); conditions: 72 h, read-out: CHRF288-11
[2] = tested on: MV4-11; assay: cells; set-up: species or system AML cell lines (8); conditions: Homo sapiens, MV4-11, 72 h, read-out: MV4-11
[3] = tested on: MOLM-13; assay: cells; set-up: species or system AML cell lines (8); Secondary HTS, 10-point dose-response in triplicate, Cell Titer Glo viability, four-parameter fit EC50; conditions: Homo sapiens; 72 h cell viability; read-out: MOLM-13
[4] = tested on: CMK; assay: cells; set-up: species or system AML cell lines (8); conditions: Homo sapiens, 72 h, read-out: CMK
[5] = tested on: CMS; assay: cells; set-up: species or system AML cell lines (8); conditions: 72 h, read-out: CMS
[6] = tested on: U937; assay: cells; set-up: species or system AML cell lines (8); conditions: Homo sapiens, U-937, 72 h, read-out: U937
[7] = tested on: M07e; assay: cells; set-up: species or system AML cell lines (8); conditions: M-07e, 72 h, read-out: M07e
[8] = tested on: ML2; assay: Secondary dose-response HTS, Cell Titer Glo; assay type: cell-based, human; conditions: for EC50: Homo sapiens
[9] = tested on: MV4-11; assay: Secondary dose-response HTS, Cell Titer Glo; assay type: cell-based, human; conditions: for EC50: Homo sapiens
[10] = tested on: AMKL primary AML blast samples; assay: Ex vivo drug treatment of primary AML blasts on mesenchymal stromal cells; assay type: cell-based; conditions: Homo sapiens; primary blasts on MSC, 96 h
[11] = tested on: MLLr primary AML blast samples; assay: as above; assay type: cell-based; conditions: Homo sapiens; primary blasts on MSC, 96 h, range over patient samples
[12] = tested on: MOLM-13; assay: Secondary dose-response HTS, Cell Titer Glo; assay type: cell-based, human; conditions: for EC50: Homo sapiens
[13] = tested on: CMK; assay: Secondary dose-response HTS, Cell Titer Glo; assay type: cell-based, human; conditions: for EC50: Homo sapiens
[14] = tested on: M07e; assay: Secondary dose-response HTS, Cell Titer Glo; assay type: cell-based, human; conditions: for EC50: Homo sapiens, M-07e
[15] = tested on: CHRF288-11; assay: Secondary dose-response HTS, Cell Titer Glo; assay type: cell-based, human; conditions: for EC50: Homo sapiens
[16] = tested on: CMS; assay: Secondary dose-response HTS, Cell Titer Glo; assay type: cell-based, human; conditions: for EC50: Homo sapiens
[17] = tested on: U937; assay: Secondary dose-response HTS, Cell Titer Glo; assay type: cell-based, human; conditions: for EC50: Homo sapiens, U-937
[18] = tested on: ML-2; assay: cells; set-up: species or system AML cell lines (8); conditions: Homo sapiens, ML-2, 72 h, read-out: ML-2
[19] = secondary high-throughput screen, ML-2, read-out: average effective concentration, ML-2
[20] = MV4-11, secondary HTS, 72 h, average of triplicate, read-out: EC50 MV4-11
[21] = secondary high-throughput screen, MV4-11, read-out: average effective concentration, MV4-11
[22] = MOLM-13, secondary HTS, 72 h, average of triplicate, read-out: EC50 MOLM-13
[23] = secondary high-throughput screen, MOLM-13, read-out: average effective concentration, MOLM-13
[24] = secondary high-throughput screen, CMK, read-out: average effective concentration, CMK
[25] = secondary HTS, 72 h, average of triplicate, read-out: EC50 M07e
[26] = secondary high-throughput screen, M07e, read-out: average effective concentration, M07e
[27] = secondary HTS, 72 h, average of triplicate, read-out: EC50 CHRF288-11
[28] = ML-2, secondary HTS, 72 h, average of triplicate, read-out: EC50 ML2
[29] = secondary HTS, 72 h, average of triplicate, read-out: EC50 U937
[30] = secondary high-throughput screen, U937, read-out: average effective concentration, U937
[31] = secondary high-throughput screen, ML-2

Row | Compound | EC50 [1] | EC50 [2] | EC50 [3] | EC50 [4] | EC50 [5] | EC50 [6] | EC50 [7] | EC50 [18] | also measured
1 | CC[C@H](NC(=O)[C@H](C)NC)C(=O)N1C[C@@H](O)C[C@H]1Cc1c(-c2[nH]c3cc(F)ccc3c2C[C@@H]2C[C@H](O)CN2C(=O)[C@H](CC)NC(=O)[C@H](C)NC)[nH]c2cc(F)ccc12 [BIRINAPANT] | > 10 µM | > 10 µM | > 10 µM | > 10 µM | > 10 µM | > 10 µM | > 10 µM |  | EC50 [8, 19]: 1 nM
2 | CC(C)C[C@H](NC(=O)[C@H](Cc1ccccc1)NC(=O)c1cnccn1)B(O)O [Bortezomib, reference compound] |  |  |  |  |  |  |  |  | EC50 [9, 20]: 2 nM; EC50 [9, 21]: 2.3 nM; IC50 [10]: 20 nM; IC50 [11]: 1.6 to 5 nM; EC50 [12, 22]: 2 nM; EC50 [12, 23]: 1.7 nM; EC50 ([13]; CMK, secondary HTS, 72 h, average of triplicate, read-out: EC50 CMK): 10 nM; EC50 [13, 24]: 7.6 nM; EC50 [14, 25]: 1 nM; EC50 [14, 26]: 1.5 nM; EC50 [15, 27]: 2 nM; EC50 ([16]; secondary HTS, 72 h, average of triplicate, read-out: EC50 CMS): 1 nM; EC50 [8, 28]: 1 nM; EC50 [8, 19]: 1.2 nM; EC50 [17, 29]: 20 nM; EC50 [17, 30]: 21 nM
3 | O=C(O)CCCc1ccc(N(CCCl)CCCl)cc1 [CHLORAMBUCIL] |  |  |  |  |  |  |  | > 10 µM | EC50 [9, 21]: 8400 nM; EC50 [12, 23]: 10000 nM; EC50 [13, 24]: 5900 nM; EC50 ([14]; secondary high-throughput screen, […], read-out: average effective concentration, M07e): 6900 nM; EC50 ([15]; HTS, secondary high-throughput screen, CHRF288-11, read-out: average effective concentration, CHRF288-11): 4900 nM; EC50 ([16]; HTS, secondary high-throughput screen, CMS, read-out: average effective concentration, CMS): 7000 nM; average effective concentration, ML-2 [8, 31]: Inactive; EC50 [17, 30]: 6100 nM
4 | O=P1(N(CCCl)CCCl)NCCCO1 (stereo not shown) [CYCLOPHOSPHAMIDE] | > 10 µM | > 10 µM | > 10 µM | > 10 µM | > 10 µM | > 10 µM | > 10 µM | > 10 µM | average effective concentration, MV4-11 [9]: Inactive; average effective concentration, MOLM-13 [12]: Inactive; average effective concentration, CMK [13]: Inactive; average effective concentration, M07e [14]: Inactive; average effective concentration, CHRF288-11 [15]: Inactive; average effective concentration, CMS [16]: Inactive; average effective concentration, ML-2 [8]: Inactive; average effective concentration, U937 [17]: Inactive
5 | CO[C@H]1C[C@@H]2CC[C@@H](C)[C@@](O)(O2)C(=O)C(=O)N2CCCC[C@H]2C(=O)O[C@H]([C@H](C)C[C@@H]2CC[C@@H](OCCO)[C@H](OC)C2)CC(=O)[C@H](C)/C=C(\C)[C@@H](O)[C@@H](OC)C(=O)[C@H](C)C[C@H](C)/C=C/C=C/C=C/1C [EVEROLIMUS] | > 10 µM | > 10 µM | > 10 µM | > 10 µM | > 10 µM | > 10 µM | > 10 µM | > 10 µM | 
6 | Cc1c(CN2CCN(C(=O)[C@H](C)O)CC2)sc2c(N3CCOCC3)nc(-c3cnc(N)nc3)nc12 [GDC-0980] | > 10 µM | > 10 µM | > 10 µM |  | > 10 µM | > 10 µM | > 10 µM | > 10 µM | EC50 [13, 24]: 520 nM
7 | O=P1(NCCCl)OCCCN1CCCl (stereo not shown) [IFOSFAMIDE] | > 10 µM | > 10 µM | > 10 µM | > 10 µM | > 10 µM | > 10 µM | > 10 µM | > 10 µM | 
8 | Cc1oncc1C(=O)Nc1ccc(C(F)(F)F)cc1 [LEFLUNOMIDE] | > 10 µM | > 10 µM | > 10 µM | > 10 µM | > 10 µM | > 10 µM | > 10 µM | > 10 µM | 
9 | COC1=CC(=O)O[C@@H](/C=C/c2ccc3c(c2)OCO3)C1 [METHYSTICIN] | > 10 µM | > 10 µM | > 10 µM | > 10 µM | > 10 µM | > 10 µM | > 10 µM | > 10 µM | average effective concentration, MV4-11 ([9]; secondary high-throughput screen, MV4-11): Inactive; average effective concentration, MOLM-13 ([12]; secondary high-throughput screen, MOLM-13): Inactive; average effective concentration, CMK ([13]; secondary high-throughput screen, CMK): Inactive; average effective concentration, M07e ([14]; secondary high-throughput screen, […]): Inactive; average effective concentration, CHRF288-11 ([15]; secondary high-throughput screen, CHRF288-11): Inactive; average effective concentration, CMS ([16]; secondary high-throughput screen, CMS): Inactive; average effective concentration, ML-2 [8, 31]: Inactive; average effective concentration, U937 ([17]; secondary high-throughput screen, U937): Inactive
10 | CCc1ccc(CCOc2ccc(CC3SC(=O)NC3=O)cc2)nc1 (stereo not shown) [PIOGLITAZONE] | > 10 µM | > 10 µM | > 10 µM | > 10 µM | > 10 µM | > 10 µM | > 10 µM | > 10 µM | 
11 | Cc1[nH]c2ccccc2c1CCNCc1ccc(/C=C/C(=O)NO)cc1 [Panobinostat, reference compound] |  |  |  |  |  |  |  |  | EC50 [9, 20]: 130 nM; IC50 [10]: 14 nM; IC50 [11]: 0.9 to 3.3 nM; EC50 [12, 22]: 180 nM; EC50 ([13]; CMK, 72 h, read-out: EC50 CMK): 3 nM; EC50 ([13]; CMK, read-out: average effective concentration, CMK): 2.85 nM; EC50 [14, 25]: 5 nM; EC50 [14, 26]: 4.64 nM; EC50 [15, 27]: 10 nM; EC50 ([16]; HTS, 72 h, read-out: EC50 CMS): 30 nM; EC50 ([16]; HTS, read-out: average effective concentration, CMS): 28 nM; EC50 [8, 28]: 10 nM; EC50 [8, 19]: 12 nM; EC50 [17, 29]: 10 nM
12 | NC(=O)c1ncn([C@@H]2O[C@H](CO)[C@@H](O)[C@H]2O)n1 [RIBAVIRIN] | > 10 µM | > 10 µM | > 10 µM | > 10 µM | > 10 µM | > 10 µM |  | > 10 µM | EC50 [14, 26]: 9300 nM
